Test results: ChEMBL document CHEMBL5291721, “A preclinical secondary pharmacology resource illuminates target-adverse drug reaction associations of marketed drugs” (Nat Commun, 2023)

Legend:
[1] = molecular target: T1, Peroxisome proliferator-activated receptor alpha (Homo sapiens, UniProt Q07869); format: functional
T1 sequence (Q07869 whole entry): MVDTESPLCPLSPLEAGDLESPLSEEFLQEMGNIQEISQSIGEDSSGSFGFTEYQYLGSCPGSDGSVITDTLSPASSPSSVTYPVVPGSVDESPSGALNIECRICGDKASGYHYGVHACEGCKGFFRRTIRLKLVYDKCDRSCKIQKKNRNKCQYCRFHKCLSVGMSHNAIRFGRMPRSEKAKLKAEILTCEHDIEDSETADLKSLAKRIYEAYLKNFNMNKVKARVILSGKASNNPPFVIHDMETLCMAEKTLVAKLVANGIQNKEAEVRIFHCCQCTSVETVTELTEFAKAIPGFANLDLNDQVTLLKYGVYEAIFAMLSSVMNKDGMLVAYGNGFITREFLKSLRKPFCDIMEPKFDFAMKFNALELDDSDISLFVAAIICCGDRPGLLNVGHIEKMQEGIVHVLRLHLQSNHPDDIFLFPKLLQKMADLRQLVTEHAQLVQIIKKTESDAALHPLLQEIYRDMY

[2] = molecular target: T1, Peroxisome proliferator-activated receptor alpha; format: functional; remark: listed apart in the source
[3] = molecular target: T2, Androgen receptor (Rattus norvegicus, UniProt P15207); format: functional
T2 sequence (P15207 whole entry): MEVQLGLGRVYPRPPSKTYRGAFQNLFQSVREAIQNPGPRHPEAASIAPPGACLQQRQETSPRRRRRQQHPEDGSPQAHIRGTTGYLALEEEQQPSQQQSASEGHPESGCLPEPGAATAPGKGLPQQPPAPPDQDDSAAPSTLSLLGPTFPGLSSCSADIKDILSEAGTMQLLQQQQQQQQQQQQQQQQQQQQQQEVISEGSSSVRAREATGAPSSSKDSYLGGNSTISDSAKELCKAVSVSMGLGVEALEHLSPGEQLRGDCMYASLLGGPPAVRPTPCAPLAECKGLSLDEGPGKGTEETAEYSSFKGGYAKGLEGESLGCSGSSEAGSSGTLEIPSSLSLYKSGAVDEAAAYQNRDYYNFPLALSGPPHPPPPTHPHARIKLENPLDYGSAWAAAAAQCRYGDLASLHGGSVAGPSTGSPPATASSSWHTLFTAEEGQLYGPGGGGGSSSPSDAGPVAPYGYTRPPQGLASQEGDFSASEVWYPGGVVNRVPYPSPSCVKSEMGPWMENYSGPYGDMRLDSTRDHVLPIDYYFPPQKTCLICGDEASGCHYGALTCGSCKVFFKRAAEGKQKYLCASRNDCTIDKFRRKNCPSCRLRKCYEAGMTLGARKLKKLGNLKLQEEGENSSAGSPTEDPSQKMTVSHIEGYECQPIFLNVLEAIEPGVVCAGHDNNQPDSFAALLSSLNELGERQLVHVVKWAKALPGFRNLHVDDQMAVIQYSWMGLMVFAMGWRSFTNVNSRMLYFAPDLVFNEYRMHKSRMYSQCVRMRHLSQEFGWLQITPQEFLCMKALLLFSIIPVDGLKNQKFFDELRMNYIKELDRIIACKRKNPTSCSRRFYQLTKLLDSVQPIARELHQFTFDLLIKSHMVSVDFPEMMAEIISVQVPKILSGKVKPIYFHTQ

[4] = molecular target: Rod cGMP-specific 3',5'-cyclic phosphodiesterase subunit alpha (Homo sapiens, UniProt P16499); format: functional
Rod cGMP-specific 3',5'-cyclic phosphodiesterase subunit alpha, sequence (P16499 whole entry): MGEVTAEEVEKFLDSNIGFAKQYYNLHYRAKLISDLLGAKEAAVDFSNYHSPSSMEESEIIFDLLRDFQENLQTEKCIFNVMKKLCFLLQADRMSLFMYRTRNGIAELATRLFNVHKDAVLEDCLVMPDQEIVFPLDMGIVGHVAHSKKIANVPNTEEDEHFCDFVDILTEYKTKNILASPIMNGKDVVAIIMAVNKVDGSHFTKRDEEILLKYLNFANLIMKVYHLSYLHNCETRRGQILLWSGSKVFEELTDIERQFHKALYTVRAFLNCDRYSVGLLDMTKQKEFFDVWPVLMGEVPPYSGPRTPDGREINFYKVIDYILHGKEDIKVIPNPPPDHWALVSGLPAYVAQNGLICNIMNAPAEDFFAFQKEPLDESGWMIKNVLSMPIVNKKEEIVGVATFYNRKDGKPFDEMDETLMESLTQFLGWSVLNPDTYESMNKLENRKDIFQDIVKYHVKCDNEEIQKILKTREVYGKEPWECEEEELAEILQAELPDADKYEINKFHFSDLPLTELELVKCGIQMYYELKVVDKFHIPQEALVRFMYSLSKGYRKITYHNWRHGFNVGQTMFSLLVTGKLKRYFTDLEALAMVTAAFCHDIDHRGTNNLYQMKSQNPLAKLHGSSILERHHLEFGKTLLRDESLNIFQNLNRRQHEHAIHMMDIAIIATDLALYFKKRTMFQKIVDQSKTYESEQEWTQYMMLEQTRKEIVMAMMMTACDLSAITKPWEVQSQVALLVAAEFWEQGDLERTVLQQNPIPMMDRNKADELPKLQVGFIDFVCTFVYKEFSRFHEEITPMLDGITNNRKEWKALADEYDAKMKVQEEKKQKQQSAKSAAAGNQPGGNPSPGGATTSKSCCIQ

[5] = molecular target: T3, Substance-K receptor (Homo sapiens, UniProt P21452)
T3 sequence (P21452 whole entry): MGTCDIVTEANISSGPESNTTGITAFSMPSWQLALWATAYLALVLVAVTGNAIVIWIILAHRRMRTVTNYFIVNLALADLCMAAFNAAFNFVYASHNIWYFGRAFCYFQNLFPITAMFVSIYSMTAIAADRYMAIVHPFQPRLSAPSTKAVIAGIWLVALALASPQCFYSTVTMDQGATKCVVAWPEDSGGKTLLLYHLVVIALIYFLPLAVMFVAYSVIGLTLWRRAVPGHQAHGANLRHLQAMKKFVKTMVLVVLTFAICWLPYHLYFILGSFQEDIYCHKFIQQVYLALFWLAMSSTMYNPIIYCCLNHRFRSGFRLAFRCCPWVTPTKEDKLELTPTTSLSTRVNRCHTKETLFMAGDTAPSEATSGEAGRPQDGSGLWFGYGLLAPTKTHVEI

[6] = molecular target: 5-hydroxytryptamine receptor 5A (Homo sapiens, UniProt P47898)
5-hydroxytryptamine receptor 5A, sequence (P47898 whole entry): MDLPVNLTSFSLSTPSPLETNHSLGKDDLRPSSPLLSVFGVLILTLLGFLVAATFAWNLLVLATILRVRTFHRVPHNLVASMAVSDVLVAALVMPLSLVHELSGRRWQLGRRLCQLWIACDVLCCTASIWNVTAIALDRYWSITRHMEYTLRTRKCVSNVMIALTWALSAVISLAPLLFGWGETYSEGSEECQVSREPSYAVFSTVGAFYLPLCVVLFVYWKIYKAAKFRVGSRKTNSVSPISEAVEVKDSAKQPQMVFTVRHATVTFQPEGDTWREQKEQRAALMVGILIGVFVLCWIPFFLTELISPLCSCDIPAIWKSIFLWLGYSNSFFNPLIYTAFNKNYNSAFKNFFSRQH

[7] = molecular target: T4, Muscarinic acetylcholine receptor M4 (Homo sapiens, UniProt P08173)
T4 sequence (P08173 whole entry): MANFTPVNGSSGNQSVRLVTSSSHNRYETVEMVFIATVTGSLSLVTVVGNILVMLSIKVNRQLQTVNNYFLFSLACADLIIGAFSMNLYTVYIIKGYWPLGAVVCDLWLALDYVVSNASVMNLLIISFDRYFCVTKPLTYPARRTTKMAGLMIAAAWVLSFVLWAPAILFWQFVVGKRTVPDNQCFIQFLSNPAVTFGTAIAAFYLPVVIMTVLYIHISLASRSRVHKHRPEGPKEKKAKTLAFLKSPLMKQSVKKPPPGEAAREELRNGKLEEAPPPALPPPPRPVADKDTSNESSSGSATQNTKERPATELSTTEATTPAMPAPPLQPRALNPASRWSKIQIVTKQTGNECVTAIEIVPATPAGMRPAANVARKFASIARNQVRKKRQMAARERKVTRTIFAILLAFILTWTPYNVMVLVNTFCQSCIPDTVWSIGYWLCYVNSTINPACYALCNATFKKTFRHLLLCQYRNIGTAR

[8] = molecular target: 5-hydroxytryptamine receptor 2A (Homo sapiens, UniProt P28223)
5-hydroxytryptamine receptor 2A, sequence (P28223 whole entry): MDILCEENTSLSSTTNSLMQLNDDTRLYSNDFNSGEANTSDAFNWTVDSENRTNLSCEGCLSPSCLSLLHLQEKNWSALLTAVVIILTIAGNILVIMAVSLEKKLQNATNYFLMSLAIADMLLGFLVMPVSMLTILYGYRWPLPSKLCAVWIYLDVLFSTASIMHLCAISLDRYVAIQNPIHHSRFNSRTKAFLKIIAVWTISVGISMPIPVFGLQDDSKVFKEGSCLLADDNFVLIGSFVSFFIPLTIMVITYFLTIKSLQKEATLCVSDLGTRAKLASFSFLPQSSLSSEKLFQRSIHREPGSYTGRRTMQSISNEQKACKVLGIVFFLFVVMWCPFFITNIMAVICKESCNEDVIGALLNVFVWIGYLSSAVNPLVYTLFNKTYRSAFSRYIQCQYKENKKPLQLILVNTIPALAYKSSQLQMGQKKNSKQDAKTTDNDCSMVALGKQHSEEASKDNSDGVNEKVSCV

[9] = molecular target: D(1A) dopamine receptor (Homo sapiens, UniProt P21728)
D(1A) dopamine receptor, sequence (P21728 whole entry): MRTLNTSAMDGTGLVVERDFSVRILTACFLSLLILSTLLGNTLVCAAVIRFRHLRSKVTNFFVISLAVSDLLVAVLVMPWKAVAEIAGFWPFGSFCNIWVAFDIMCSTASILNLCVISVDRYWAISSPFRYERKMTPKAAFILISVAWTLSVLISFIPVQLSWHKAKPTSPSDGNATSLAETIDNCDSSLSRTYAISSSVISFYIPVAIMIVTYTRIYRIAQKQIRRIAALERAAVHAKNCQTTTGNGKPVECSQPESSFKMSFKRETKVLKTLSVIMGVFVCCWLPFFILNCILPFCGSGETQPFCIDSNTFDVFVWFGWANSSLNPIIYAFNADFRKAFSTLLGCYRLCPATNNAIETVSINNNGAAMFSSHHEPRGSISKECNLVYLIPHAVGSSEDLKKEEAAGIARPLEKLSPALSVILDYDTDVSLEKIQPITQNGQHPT

[10] = molecular target: T5, Nuclear receptor subfamily 1 group I member 3 (Homo sapiens, UniProt Q14994); format: functional
T5 sequence (Q14994 whole entry): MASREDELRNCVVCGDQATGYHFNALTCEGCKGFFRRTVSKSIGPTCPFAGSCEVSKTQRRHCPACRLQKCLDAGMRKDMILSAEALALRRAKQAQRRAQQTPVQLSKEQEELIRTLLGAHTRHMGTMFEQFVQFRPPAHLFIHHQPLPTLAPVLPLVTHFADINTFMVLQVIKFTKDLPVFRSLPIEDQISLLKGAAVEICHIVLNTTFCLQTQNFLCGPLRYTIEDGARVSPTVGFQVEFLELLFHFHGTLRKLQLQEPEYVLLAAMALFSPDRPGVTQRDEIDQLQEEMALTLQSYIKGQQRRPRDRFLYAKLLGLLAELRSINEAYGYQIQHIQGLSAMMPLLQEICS
Note: assay procedure not described here.

**Q.** Which results are given for `CC(=O)Nc1ccc(O)cc1` [ACETAMINOPHEN]?
**A.** AC50 [1]: > 30 µM; AC50 [2]: > 30 µM

**Q.** How did the AC50 [3] turn out when `C=CCc1ccccc1OCC(O)CNC(C)C` (stereo not drawn) [ALPRENOLOL] was run?
**A.** > 30 µM

**Q.** With `NCC(CC(=O)O)c1ccc(Cl)cc1` (stereo not drawn) [BACLOFEN] as the compound, how does the AC50 [4] read?
**A.** > 10 µM

**Q.** What about the AC50 [5] of the same compound?
**A.** > 10 µM

**Q.** And the AC50 [6]?
**A.** > 10 µM

**Q.** What about the AC50 [7] of the same compound?
**A.** > 10 µM

**Q.** `Cc1ccc(-c2cc(C(F)(F)F)nn2-c2ccc(S(N)(=O)=O)cc2)cc1` [CELECOXIB] was tested. Which AC50 [4] did it give?
**A.** > 10 µM

**Q.** And the AC50 [5]?
**A.** > 10 µM

**Q.** What about the AC50 [6] of the same compound?
**A.** > 10 µM

**Q.** And the AC50 [7]?
**A.** > 10 µM

**Q.** What does the source list for `CN(C)CCC(c1ccc(Cl)cc1)c1ccccn1` (stereo not drawn) [CHLORPHENIRAMINE]?
**A.** AC50 [4]: > 10 µM; AC50 [5]: > 10 µM; AC50 [6]: > 10 µM; AC50 [7]: > 10 µM

**Q.** With `O=C1Nc2ccc(Cl)cc2[C@@](C#CC2CC2)(C(F)(F)F)O1` [EFAVIRENZ] as the compound, how does the AC50 [8] read?
**A.** 3.79 µM

**Q.** For `O=C(OCC(O)CO)c1ccccc1Nc1ccnc2cc(Cl)ccc12` (stereo not drawn) [GLAFENINE], which AC50 [9] is on record?
**A.** > 30 µM

**Q.** For `CCC1=C(C)CN(C(=O)NCCc2ccc(S(=O)(=O)NC(=O)N[C@H]3CC[C@H](C)CC3)cc2)C1=O` [GLIMEPIRIDE], which AC50 [1] is on record?
**A.** > 30 µM

**Q.** What about the AC50 [2] of the same compound?
**A.** > 30 µM

**Q.** With `CCC(C)n1ncn(-c2ccc(N3CCN(c4ccc(OCC5COC(Cn6cncn6)(c6ccc(Cl)cc6Cl)O5)cc4)CC3)cc2)c1=O` (stereo not drawn) [ITRACONAZOLE] as the compound, how does the AC50 [1] read?
**A.** > 30 µM

**Q.** And the AC50 [10]?
**A.** > 30 µM

**Q.** What about the AC50 [2] of the same compound?
**A.** > 30 µM

**Q.** For `CN1C(C(=O)Nc2ccccn2)=C(O)c2sc(Cl)cc2S1(=O)=O` [LORNOXICAM], which AC50 [1] is on record?
**A.** > 30 µM

**Q.** And the AC50 [8]?
**A.** > 10 µM

**Q.** And the AC50 [10]?
**A.** > 30 µM

**Q.** And the AC50 [2]?
**A.** > 30 µM

**Q.** How did the AC50 [3] turn out when `CC[C@H]1[C@@H](O)[C@@H]2[C@H](CC[C@]3(C)[C@@H]([C@H](C)CCC(=O)O)CC[C@@H]23)[C@@]2(C)CC[C@@H](O)C[C@@H]12` [OBETICHOLIC ACID] was run?
**A.** > 30 µM

**Q.** For `Cc1c(C(=O)NN2CCCCC2)nn(-c2ccc(Cl)cc2Cl)c1-c1ccc(Cl)cc1` [RIMONABANT], which AC50 [4] is on record?
**A.** > 10 µM

**Q.** And the AC50 [1]?
**A.** > 30 µM

**Q.** What about the AC50 [8] of the same compound?
**A.** > 10 µM

**Q.** What about the AC50 [10] of the same compound?
**A.** 6.6 µM

**Q.** And the AC50 [5]?
**A.** > 10 µM

**Q.** And the AC50 [6]?
**A.** > 10 µM

**Q.** And the AC50 [2]?
**A.** > 30 µM

**Q.** What about the AC50 [7] of the same compound?
**A.** > 10 µM

**Q.** With `CS(=O)(=O)c1ccc(C2=C(c3ccccc3)C(=O)OC2)cc1` [ROFECOXIB] as the compound, how does the AC50 [4] read?
**A.** > 10 µM

**Q.** And the AC50 [5]?
**A.** > 10 µM

**Q.** And the AC50 [6]?
**A.** > 10 µM

**Q.** What about the AC50 [7] of the same compound?
**A.** > 10 µM

**Q.** `Cc1cn([C@H]2C=C[C@@H](CO)O2)c(=O)[nH]c1=O` [STAVUDINE] was tested. Which AC50 [9] did it give?
**A.** > 30 µM

**Q.** For `Cn1nnc2c(C(N)=O)ncn2c1=O` [TEMOZOLOMIDE], which AC50 [8] is on record?
**A.** > 10 µM

**Q.** How did the AC50 [3] turn out when `O=C(O[C@H]1C[C@H]2CC[C@@H](C1)[N+]21CCCC1)C(O)(c1ccccc1)c1ccccc1` [TROSPIUM] was run?
**A.** > 30 µM

**Q.** With `N[C@@H]1[C@H]2CN(c3nc4c(cc3F)c(=O)c(C(=O)O)cn4-c3ccc(F)cc3F)C[C@@H]12` [TROVAFLOXACIN] as the compound, how does the AC50 [10] read?
**A.** > 30 µM
